According to patent US20200172483A1, “HETEROCYCLIC SMALL MOLECULE MODULATORS OF HUMAN STING” (Curadev Pharma Limited, priority 2017, published 2020):
pEC50: −log10 of the molar value.

Experiments:
NF-κB pathway = assay: Reporter gene expression assay for NFκB axis in THP1-Dual cells (secreted SEAP); format: cell-based, human; conditions: Homo sapiens, THP1-Dual, 20 h, 20 hr stimulation, QUANTI-Blue SEAP, EC50 range, read-out: THP-NFKB activity
Procedure, shortened: (§1)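 THP1-Dual cells (THP-1 monocytes with inducible NF-κB-SEAP and IRF-Lucia reporters; 5×10^5 cells) were stimulated with compounds for 20 hr. Secreted SEAP (QUANTI-Blue) and Lucia luciferase (QUANTI-Luc) were then measured in the supernatant. EC50 values are reported as ranges.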

WT/R232 STING protein = target: T1, WT/R232 STING protein (Homo sapiens, UniProt Q86WV6, H232R); assay: Luciferase reporter assay in HEK293T-hSTING-Luciferase cells (R232); format: cell-based; conditions: 20 hr stimulation, EC50 range
T1 construct: host or cells: HEK293T
T1 sequence (Q86WV6 whole entry H232R): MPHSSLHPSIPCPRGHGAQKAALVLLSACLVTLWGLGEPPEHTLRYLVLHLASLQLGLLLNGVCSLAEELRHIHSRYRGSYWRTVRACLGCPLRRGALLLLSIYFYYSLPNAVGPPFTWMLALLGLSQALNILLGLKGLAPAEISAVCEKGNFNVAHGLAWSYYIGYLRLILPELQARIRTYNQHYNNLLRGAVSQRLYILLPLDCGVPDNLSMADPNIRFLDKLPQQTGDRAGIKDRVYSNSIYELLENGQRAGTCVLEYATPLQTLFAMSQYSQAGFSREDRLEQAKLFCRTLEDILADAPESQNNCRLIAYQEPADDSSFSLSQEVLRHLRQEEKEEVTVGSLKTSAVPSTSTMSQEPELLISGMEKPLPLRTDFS
Procedure, shortened: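 Clonal HEK293T cells stably expressing human STING R232 plus an ISRE/ISG54-driven secreted luciferase reporter, stimulated with compounds for 20 hr. Luciferase in supernatant read by luminescence; activity given as fold-induction over baseline.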

hSTING (HAQ) = target: T2, hSTING (HAQ) (Homo sapiens, UniProt Q86WV6, G230A/H232R/R293Q/R71H); assay: Luciferase reporter assay in HEK293T-hSTING-Luciferase cells (HAQ polymorph); format: cell-based; conditions: EC50 range
T2 construct: host or cells: HEK293T
T2 sequence (Q86WV6 whole entry R71H/G230A/H232R/R293Q): as the sequence (Q86WV6 whole entry H232R) above, with R71H, G230A, R293Q counted along it
Procedure, shortened: (§2)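 Clonal HEK293T lines stably expressing the hSTING variant (H232 or HAQ) plus an ISRE/ISG54-driven secreted luciferase reporter were stimulated with compounds for 20 hr. Supernatant luciferase measured by luminescence (Quanti-Luc).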

hSTING (H232) = target: T3, hSTING (H232) (Homo sapiens, UniProt Q86WV6); assay: Luciferase reporter assay in HEK293T-hSTING-Luciferase cells (H232/REF polymorph); format: cell-based; conditions: EC50 range
T3 construct: host or cells: HEK293T
T3 sequence (Q86WV6 whole entry): as the sequence (Q86WV6 whole entry H232R) above, with R232H counted along it
Procedure, shortened: as §2

IRF pathway = assay: Reporter gene expression assay for IRF axis in THP1-Dual cells (secreted Lucia luciferase); format: cell-based, human; conditions: Homo sapiens, THP1-Dual, 20 h, 20 hr stimulation, QUANTI-Luc, EC50 range, read-out: THP-IRF activity
Procedure, shortened: as §1

Row | Structure (SMILES) | pEC50 (NF-κB pathway) | pEC50 (WT/R232 STING protein) | pEC50 (hSTING (HAQ)) | pEC50 (hSTING (H232)) | pEC50 (IRF pathway)
1 | CC1(C#N)C(=O)N(Cc2cc(F)cc(F)c2)c2cc(C(=O)NCc3cc4ccccc4o3)ccc21 (centres unmarked) [Example 92, N-(benzofuran-2-ylmethyl)-3-cyano-1-(3,5-difluorobenzyl)-3-methyl-2-oxoindoline-6-carboxamide] | < 5.00 | 5.00 to 6.00 | 5.00 to 6.00 | 5.00 to 6.00 | < 5.00
2 | Cc1nn(C)c(CN2C(=O)C(C)(C)c3ccc(C(=O)NCc4cc5cc(F)ccc5o4)cc32)c1F [Example 115, 1-((4-fluoro-1,3-dimethyl-1H-pyrazol-5-yl)methyl)-N-((5-fluorobenzofuran-2-yl)methyl)-3,3-dimethyl-2-oxoindoline-6-carboxamide] | 5.00 to 6.00 | ≥ 6.00 | ≥ 6.00 | ≥ 6.00 | 5.00 to 6.00
3 | CC1(C)C(=O)N(Cc2cc(F)cc(F)c2)c2nc(C(=O)NCc3ccccc3)ccc21 [Example 191, N-benzyl-1-(3,5-difluorobenzyl)-3,3-dimethyl-2-oxo-2,3-dihydro-1H-pyrrolo[2,3-b]pyridine-6-carboxamide] | < 5.00 | 5.00 to 6.00 | 5.00 to 6.00 | 5.00 to 6.00 | < 5.00
4 | CC1(C)C(=O)N(Cc2cccc(F)c2F)c2cc(C(=O)NCc3c(F)cc(F)cc3F)ccc21 [Example 33, 1-(2,3-difluorobenzyl)-3,3-dimethyl-2-oxo-N-(2,4,6-trifluorobenzyl)indoline-6-carboxamide] | 5.00 to 6.00 | ≥ 6.00 | ≥ 6.00 | ≥ 6.00 | 5.00 to 6.00
5 | CC1(C)C(=O)N(Cc2cccc(F)c2)c2cc(C(=O)NCc3c(F)cc(F)cc3F)ccc21 [Example 14, 1-(3-fluorobenzyl)-3,3-dimethyl-2-oxo-N-(2,4,6-trifluorobenzyl)indoline-6-carboxamide] | 5.00 to 6.00 | ≥ 6.00 | 5.00 to 6.00 | 5.00 to 6.00 | 5.00 to 6.00
6 | CC1(C)C(=O)N(Cc2ccccc2)c2cc(C(=O)NCc3c(F)cc(F)cc3F)ccc21 [Example 11, 1-benzyl-3,3-dimethyl-2-oxo-N-(2,4,6-trifluorobenzyl)indoline-6-carboxamide] | 5.00 to 6.00 | ≥ 6.00 | 5.00 to 6.00 | 5.00 to 6.00 | < 5.00
7 | COc1cccc(F)c1CN1C(=O)C(C)(C)c2ccc(C(=O)NCc3c(F)cc(F)cc3F)cc21 [Example 102, 1-(2-fluoro-6-methoxybenzyl)-3,3-dimethyl-2-oxo-N-(2,4,6-trifluorobenzyl)indoline-6-carboxamide] | ≥ 6.00 | ≥ 6.00 | ≥ 6.00 | ≥ 6.00 | ≥ 6.00
8 | CC1(C)C(=O)N(Cc2ccc(N=[N+]=[N-])cc2)c2cc(C(=O)NCc3c(F)cc(F)cc3F)ccc21 [Example 56, 1-(4-azidobenzyl)-3,3-dimethyl-2-oxo-N-(2,4,6-trifluorobenzyl)indoline-6-carboxamide] | < 5.00 | ≥ 6.00 | 5.00 to 6.00 | 5.00 to 6.00 | < 5.00
9 | CC1(C)C(=O)N(Cc2cc(F)cc(F)c2)c2nc(C(=O)NCc3ccc(F)cc3)ccc21 [Example 189, 1-(3,5-difluorobenzyl)-N-(4-fluorobenzyl)-3,3-dimethyl-2-oxo-2,3-dihydro-1H-pyrrolo[2,3-b]pyridine-6-carboxamide] | < 5.00 | ≥ 6.00 | 5.00 to 6.00 | 5.00 to 6.00 | < 5.00
10 | Cc1cc(CN2C(=O)C(C)(C)c3ccc(C(=O)NCc4c(F)cc(F)cc4F)cc32)n(C)n1 [Example 82, 1-((1,3-dimethyl-1H-pyrazol-5-yl)methyl)-3,3-dimethyl-2-oxo-N-(2,4,6-trifluorobenzyl)indoline-6-carboxamide] | 5.00 to 6.00 | ≥ 6.00 | 5.00 to 6.00 | 5.00 to 6.00 | 5.00 to 6.00
